Experimental data taken from ChEMBL document CHEMBL5674860, “Optimized Dual-Glo Assay to identify co-culture-induced drug vulnerabilities in 3D CRC models” (2024).

Assays:
Assay type in all cases: functional, Homo sapiens
Set-up in all cases: dose or concentration left out as unconfirmed
[1] = system: Colon cancer organoid; assay: Optimized Dual-Glo assay to identify co-culture induced drug vulnerabilities using donated chemical probes and chemogenomics kinase set in O20 CRC organoid and F20 CAF mono and co-culture. […] Cell viability is reported both mono and co-culture models.
[2] = system: Colon cancer organoid; assay: Optimized Dual-Glo assay to identify co-culture induced drug vulnerabilities using donated chemical probes and chemogenomics kinase set in O06 CRC organoid and F06 CAF mono and co-culture. […] Cell viability is reported both mono and co-culture models.
[3] = system: Colon cancer organoid; assay: Optimized Dual-Glo assay to identify co-culture induced drug vulnerabilities using donated chemical probes and chemogenomics kinase set in O14 CRC organoid and F14 CAF mono and co-culture. […] Cell viability is reported both mono and co-culture models.
[4] = Culture type Co-Culture, Transduced with Lucferase2-P2A-EGFP lentivirus
[5] = Culture type Co-Culture, Transduced with Renilla-dsRed lentivirus
[6] = Culture type Mono-Culture, Transduced with Lucferase2-P2A-EGFP lentivirus
[7] = Culture type Mono-Culture, Transduced with Renilla-dsRed lentivirus

SMILES | Cell Viability [1, 4] [%] | Cell Viability [1, 5] [%] | Cell Viability [1, 6] [%] | Cell Viability [1, 7] [%] | Cell Viability [2, 4] [%] | Cell Viability [2, 5] [%] | Cell Viability [2, 6] [%] | Cell Viability [2, 7] [%] | Cell Viability [3, 4] [%] | Cell Viability [3, 5] [%] | Cell Viability [3, 6] [%] | Cell Viability [3, 7] [%]
CN(C)C(=O)Cn1cc(-c2nc(C3(c4ccc(-c5cnc(N)nc5)cc4)CC3)no2)cn1 [BI 0153] | 119.435 | 91.9766 | 120.102 | 113.624 | 114.895 | 116.335 | 110.704 | 85.1331 | 85.1631 | 102.426 | 124.477 | 95.7431
CC(=O)N1CCC(c2ccc(C(=O)NC3=NCCN3)cc2C(F)(F)F)CC1 [BI 0054] | 121.714 | 122.015 | 116.125 | 107.845 | 128.003 | 143.254 | 114.863 | 104.942 | 129.436 | 116.761 | 105.472 | 102.083
Cc1c(C(=O)O)cc(-c2ccc(C3CCNCC3)cc2)c2ccc(-c3ccc(C(F)(F)F)cc3)cc12.Cl | 115.549 | 99.1911 | 103.532 | 103.975 | 69.2582 | 93.9723 | 78.1885 | 87.9203 | 89.0162 | 119.102 | 89.8992 | 99.4723
CNc1nc(Nc2cnn([C@H]3CCN(C4COC4)C[C@@H]3F)c2Cl)ncc1C(F)(F)F | 199.298 | 86.9942 | 108.189 | 89.737 | 94.4056 | 87.0484 | 128.459 | 108.44 | 116.318 | 104.728 | 169.727 | 102.216
C[C@@H]1CCNC(=O)c2cc3ccc(C(=O)Nc4nc5ccccc5n4CCCN(C)C)cc3n21 | 64.9365 | 147.158 | 51.9591 | 102.286 | 65.6776 | 63.6239 | 102.952 | 73.3213 | 91.1023 | 83.3009 | 101.537 | 86.0489
C[C@@H](c1cccc(CN)c1)n1cc(Cl)cc(C(N)=O)c1=N.Cl | 85.1583 | 93.567 | 85.5992 | 85.7646 | 104.535 | 114.984 | 142.418 | 104.758 | 79.0577 | 134.768 | 97.3624 | 96.7861
N#CN1CC[C@@H](C(=O)Nc2nc3c(s2)CN(C(=O)CN=[N+]=[N-])CC3)C1 [JYQ88] | 63.8809 | 84.2967 | 72.0417 | 77.9243 | 72.1963 | 58.5555 | 71.7367 | 79.6546 | 85.6014 | 100.681 | 114.259 | 88.3695
Clc1cccc(-c2nnnn2Cc2cccnc2)c1Cl | 106.259 | 101.74 | 98.4532 | 98.284 | 143.79 | 176.132 | 116.081 | 109.73 | 106.43 | 104.512 | 115.794 | 81.6635
Cc1ccc(C(=O)Nc2cccc(C(F)(F)F)c2)cc1Nc1nc(-c2cccnc2)nc2c1cnn2C | 141.672 | 123.917 | 68.1835 | 97.2478 | 60.2736 | 70.9034 | 100.972 | 83.1262 | 103.322 | 86.6207 | 91.8457 | 71.8424
Cc1cc(-n2nc(Cc3cc(F)cc(C(F)(F)F)c3)nc2C)ccc1C(N)=O [TP-024] | 120.055 | 118.791 | 103.637 | 122.989 | 141.247 | 165.614 | 109.141 | 106.563 | 111.425 | 96.0369 | 116.033 | 105.901
Cn1cc(CCn2cnc(-c3cnn(C)c3)c2-c2ccc(C#N)cc2)cn1 | 162.016 | 107.326 | 101.421 | 89.845 | 101.212 | 117.261 | 137.811 | 99.9578 | 112.655 | 89.8106 | 89.6485 | 97.1773
CN(C(=O)c1cnn2cccnc12)c1cc2c(cc1N1CCOCC1)C(=O)N(C[C@@H](F)C(C)(C)O)C2 | 85.0124 | 89.8275 | 94.3235 | 98.269 | 93.6773 | 65.3185 | 72.0703 | 97.8487 | 89.5893 | 113.489 | 112.103 | 103.195
Nc1nc(NCc2ccccc2)nc(-c2ccccc2CO)n1 [Ogerin] | 80.9307 | 98.0569 | 82.507 | 92.5232 | 100.001 | 107.856 | 82.0596 | 96.3715 | 77.8704 | 129.106 | 105.546 | 105.714
Cn1cc(-c2ccc3occ(-c4cccc(-c5ccncc5)c4)c3n2)cn1 | 65.7439 | 132.411 | 69.6903 | 72.543 | 91.2802 | 94.5664 | 138.621 | 110.377 | 113.323 | 67.5057 | 72.9931 | 81.4959
CCC(=O)N[C@@H]1CC[C@H](C(=O)N(C)c2ccc(-c3nc4ccccc4o3)cc2)C1 [BI 99990] | 115.817 | 121.154 | 99.9084 | 146.017 | 135.832 | 173.184 | 107.841 | 87.7071 | 87.159 | 112.98 | 99.3505 | 100.76
Cc1ccc(-c2cnc([C@@]3(O)CC[C@H](C(=O)O)C(C)(C)C3)s2)cc1Nc1cccc(C(F)(F)F)n1 [MRL-SYKi-NC] | 106.503 | 131.597 | 144.144 | 94.9642 | 103.411 | 158.333 | 78.37 | 87.8946 | 89.1631 | 98.4974 | 85.8631 | 77.2403
CNC(=O)c1ccccc1Nc1cc(Nc2ccc(N3CCOCC3)cc2OC)ncc1C(F)(F)F [VS-4718] | 13.8337 | 72.4438 | 12.23 | 46.798 | 52.8737 | 57.2971 | 31.5838 | 48.5863 | 33.8151 | 68.2368 | 15.2403 | 46.526
COc1cc(-c2cn(C)c(=O)c3cnccc23)c(OC)cc1CN(C)C | 61.2069 | 139.676 | 83.2777 | 82.5544 | 79.252 | 108.934 | 73.0791 | 96.9165 | 86.2085 | 136.409 | 67.8836 | 114.194
CC1=C(C#N)C(c2ccc3[nH]nc(C)c3c2)C(C#N)=C(C)N1 [BAY-474] | 81.7867 | 102.241 | 98.8764 | 79.7467 | 148.587 | 192.268 | 98.9453 | 96.2381 | 198.7 | 101.908 | 71.8172 | 85.997
